Results taken from PMC4598118 (PLoS ONE, 2015).
“And” between values parts separate entries of the source, which are not always exact repeats. Identical values can stand only once. Like-named read-outs stand apart in the source and are kept apart here. Marks after values point to notes of the source that are not given here.

Key:
[1] = target: T1, Homo sapiens AChE (hAChE) (Homo sapiens, UniProt P22303); type: biochemical
[2] = target: Aedes aegypti AChE1 (AaAChE1) (Aedes aegypti, UniProt Q6A2E2); type: biochemical
[3] = target: T2, Mus musculus AChE (mAChE) (Mus musculus, UniProt P21836); type: biochemical
[4] = target: T3, Anopheles gambiae AChE1-G119S (Anopheles gambiae, UniProt Q869C3, G280S); settings: cited from earlier work
[5] = target: Anopheles gambiae AChE1 (AgAChE1) (Anopheles gambiae, UniProt Q869C3); type: biochemical
[6] = target: T3, Anopheles gambiae AChE1-G119S; type: biochemical
[7] = target: T2, Mus musculus AChE (mAChE); settings: cited from earlier work
[8] = target: T1, Homo sapiens AChE (hAChE); settings: cited from earlier work
AaAChE1 [9] = target: T4, AaAChE1 (Aedes aegypti, UniProt Q6A2E2); test: biochemical
mAChE [10] = target: T5, mAChE (Mus musculus, UniProt P21836); settings: read-out: IC 50-values of reversible inhibitors; cited from earlier work
hAChE [11] = target: T6, hAChE (Homo sapiens, UniProt P22303); settings: read-out: IC 50-values of reversible inhibitors; cited from earlier work
[12] = tested on: AChE1 vs vertebrate AChEs; type: biochemical
AgAChE1-G119S [13] = target: T7, AgAChE1-G119S (Anopheles gambiae, UniProt Q869C3, G280S); type: biochemical
hAChE [14] = target: T6, hAChE; type: biochemical
mAChE [15] = target: T5, mAChE; type: biochemical
AaAChE1 [16] = target: T4, AaAChE1; type: biochemical
AgAChE1 = AgAChE1 (Anopheles gambiae, UniProt Q869C3); type: biochemical
mAChE [17] = target: T5, mAChE; test: biochemical; settings: IC 50-values of reversible inhibitors
AgAChE1-G119S [18] = target: T7, AgAChE1-G119S; settings: cited from earlier work

**Q.** With `CC(=O)SCC[N+](C)(C)C` [ATChI, acetylthiocholine iodide] as the compound, how does the Km [1] read?
**A.** 146 µM

**Q.** What about the Vmax [1] of the same compound?
**A.** 821 (782–860) mA/min

**Q.** And the “Vmax in percent of Vmax(ATChI)” value [1]?
**A.** 100^a percent of Vmax(ATChI)

**Q.** And the Km [2]?
**A.** 25 µM

**Q.** What about the Vmax [2] of the same compound?
**A.** 406 (389–422) mA/min

**Q.** And the “Vmax in percent of Vmax(ATChI)” value [2]?
**A.** 100^a percent of Vmax(ATChI)

**Q.** What about the Km [3] of the same compound?
**A.** 84 µM

**Q.** And the Vmax [3]?
**A.** 725 (694–756) mA/min

**Q.** What about the “Vmax in percent of Vmax(ATChI)” value [3] of the same compound?
**A.** 100^a percent of Vmax(ATChI)

**Q.** And the Kcat [4]?
**A.** 4^b s^-1

**Q.** What about the Km [5] of the same compound?
**A.** 27 µM

**Q.** What about the Vmax [5] of the same compound?
**A.** 528 (505–552) mA/min

**Q.** And the “Vmax in percent of Vmax(ATChI)” value [5]?
**A.** 100^a percent of Vmax(ATChI)

**Q.** And the Vmax [6]?
**A.** 318 (310–326) mA/min

**Q.** And the “Vmax in percent of Vmax(ATChI)” value [6]?
**A.** 100^a percent of Vmax(ATChI)

**Q.** And the Kcat [7]?
**A.** 2333^c s^-1

**Q.** What about the Kcat [8] of the same compound?
**A.** 6167^d s^-1

**Q.** Which Km [2] does the source give for `CCCC(=O)SCC[N+](C)(C)C` [BTChI, butyrylthiocholine iodide] here?
**A.** 45 µM

**Q.** What about the Vmax [2] of the same compound?
**A.** 38 (36–40) mA/min

**Q.** What about the Km [5] of the same compound?
**A.** 36 µM

**Q.** And the Vmax [5]?
**A.** 58 (55–61) mA/min

**Q.** And the Vmax [6]?
**A.** 34 (24–45) mA/min

**Q.** For `CCN1CCC[C@@H]1CNC(=O)c1cc([N+](=O)[O-])c(N(C)C)cc1OC` [C5685R], which IC50 (AaAChE1 [9]) is on record?
**A.** > 30 µM

**Q.** What about the IC50 (mAChE [10]) of the same compound?
**A.** 0.7 µM

**Q.** What about the IC50 (hAChE [11]) of the same compound?
**A.** 1.3 µM

**Q.** What does the source list for `CCN1CCC[C@H]1CNC(=O)c1cc([N+](=O)[O-])c(N(C)C)cc1OC` [C5685S]?
**A.** IC50 (mAChE [10]): 0.7 µM; IC50 (hAChE [11]): 1.4 µM

**Q.** With `CNC(=O)Oc1ccc2c(c1)[C@]1(C)CCN(C)[C@@H]1N2C` [Eserine, eserine] as the compound, how does the “fold more potent on AChE1 than on vertebrate AChEs (k i)” value [12] read?
**A.** approximately 10 fold

**Q.** What about the “ki-values of covalent inhibitors” value (AgAChE1-G119S [13]) of the same compound?
**A.** 1.18 (0.63–1.72) μM^-1 min^-1 and 1,18 μM^-1 min^-1

**Q.** What about the “ki-values of covalent inhibitors” value (hAChE [14]) of the same compound?
**A.** 2.66 (2.28–3.05) μM^-1 min^-1 and 2,66 μM^-1 min^-1

**Q.** What about the “ki-values of covalent inhibitors” value (mAChE [15]) of the same compound?
**A.** 1.36 (1.15–1.56) μM^-1 min^-1 and 1,36 μM^-1 min^-1

**Q.** And the “ki-values of covalent inhibitors” value (AaAChE1 [16])?
**A.** 24.8 (18.1–31.5) μM^-1 min^-1 and 24,8 μM^-1 min^-1

**Q.** And the “ki-values of covalent inhibitors” value (AgAChE1)?
**A.** 27.3 (23.8–30.8) μM^-1 min^-1 and 27,26 μM^-1 min^-1

**Q.** Which IC50 (mAChE [17]) does the source give for `CCN(CC)C(C)CN1c2ccccc2Sc2ccccc21` (centres unmarked) [Ethopropazine, ethopropazine] here?
**A.** ~1000 µM

**Q.** With `CCC(=O)SCC[N+](C)(C)C` [PTChI, propionylthiocholine iodide] as the compound, how does the Km [1] read?
**A.** 150 µM

**Q.** What about the Vmax [1] of the same compound?
**A.** 429 (415–442) mA/min

**Q.** What about the “Vmax in percent of Vmax(ATChI)” value [1] of the same compound?
**A.** 52,3^a percent of Vmax(ATChI)

**Q.** And the Km [2]?
**A.** 20 µM

**Q.** And the Vmax [2]?
**A.** 266 (258–275) mA/min

**Q.** What about the “Vmax in percent of Vmax(ATChI)” value [2] of the same compound?
**A.** 65,5^a percent of Vmax(ATChI)

**Q.** And the Km [3]?
**A.** 59 µM

**Q.** What about the Vmax [3] of the same compound?
**A.** 367 (354–380) mA/min

**Q.** And the “Vmax in percent of Vmax(ATChI)” value [3]?
**A.** 50,6^a percent of Vmax(ATChI)

**Q.** And the Km [5]?
**A.** 25 µM

**Q.** What about the Vmax [5] of the same compound?
**A.** 407 (393–421) mA/min

**Q.** And the “Vmax in percent of Vmax(ATChI)” value [5]?
**A.** 77,1^a percent of Vmax(ATChI)

**Q.** And the Vmax [6]?
**A.** 105 (87–123) mA/min

**Q.** For `CNC(=O)Oc1ccccc1OC(C)C` [Propoxur, propoxur], which “fold lower inhibition constants than eserine” value [12] is on record?
**A.** 15–30 fold

**Q.** What about the “fold more potent on AChE1 than on vertebrate AChEs (k i)” value [12] of the same compound?
**A.** approximately 10 fold

**Q.** What about the “inhibition of the G119S mutant” value (AgAChE1-G119S [13]) of the same compound?
**A.** only marginal inhibition

**Q.** What about the “ki-values of covalent inhibitors” value (AaAChE1 [16]) of the same compound?
**A.** 1.20 (1.05–1.35) μM^-1 min^-1 and 1,2 μM^-1 min^-1

**Q.** What about the “ki-values of covalent inhibitors” value (AgAChE1) of the same compound?
**A.** 1.11 (1.02–1.21) μM^-1 min^-1 and 1,11 μM^-1 min^-1

**Q.** What about the ki (AgAChE1-G119S [18]) of the same compound?
**A.** 0,00015^b µM^-1 min^-1
